Reference: PubChem BioAssay AID686918 (Sanford-Burnham Center for Chemical Genomics, 2013)
The source made the active and inactive calls.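 How the source made its calls: active means thrombin counterscreen IC50 at or below 100 µM; inactive means the rest.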

Molecular target: Prothrombin (Bos taurus) (UniProt P00735)
Test: bovine thrombin protease inhibition, dose response, counter-screen for Rpn11 inhibitor project, biochemical, fluorescence polarization, SAR validation (AID 686918)
Details: bovine thrombin cleavage of Ub4-pepOG

Prothrombin (Bos taurus), sequence (P00735 whole entry, looked up): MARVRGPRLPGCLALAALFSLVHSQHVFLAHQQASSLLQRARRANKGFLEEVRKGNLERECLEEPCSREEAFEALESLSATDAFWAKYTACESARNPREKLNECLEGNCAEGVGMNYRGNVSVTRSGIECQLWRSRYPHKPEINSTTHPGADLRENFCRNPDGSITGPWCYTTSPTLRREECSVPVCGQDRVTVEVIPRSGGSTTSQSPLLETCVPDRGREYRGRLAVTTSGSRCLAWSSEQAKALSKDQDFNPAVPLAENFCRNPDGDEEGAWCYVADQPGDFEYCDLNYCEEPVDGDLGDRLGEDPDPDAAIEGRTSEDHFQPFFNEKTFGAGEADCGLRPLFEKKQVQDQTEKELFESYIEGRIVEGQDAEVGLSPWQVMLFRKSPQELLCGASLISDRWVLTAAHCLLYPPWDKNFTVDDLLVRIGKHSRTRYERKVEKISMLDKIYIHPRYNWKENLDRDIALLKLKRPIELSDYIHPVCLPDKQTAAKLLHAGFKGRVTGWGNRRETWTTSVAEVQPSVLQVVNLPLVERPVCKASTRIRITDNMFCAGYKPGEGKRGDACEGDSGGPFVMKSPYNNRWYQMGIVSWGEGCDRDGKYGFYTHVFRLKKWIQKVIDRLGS

Structure (SMILES) | IC50
O=C(Sc1cccc2cccnc12)c1ccc(C(F)(F)F)cc1 | > 99 µM (inactive)
O=C(Sc1cccc2cccnc12)c1ccccc1I | > 99 µM (inactive)
CCCc1ccc(C(=O)Sc2cccc3cccnc23)cc1 | > 99 µM (inactive)
O=C(Sc1cccc2cccnc12)c1ccccc1[N+](=O)[O-] | > 99 µM (inactive)
O=C(Sc1cccc2cccnc12)c1ccccc1Br | > 99 µM (inactive)
COc1ccc(C(=O)Sc2cccc3cccnc23)cc1OC | > 99 µM (inactive)
COc1ccc(C(=O)Sc2cccc3cccnc23)cc1F | > 99 µM (inactive)
CC(C)Cc1ccc(C(=O)Sc2cccc3cccnc23)cc1 | > 99 µM (inactive)
O=C(Sc1cccc2cccnc12)c1ccc([N+](=O)[O-])cc1 | > 99 µM (inactive)
N#Cc1ccc(C(=O)Sc2cccc3cccnc23)cc1 | > 99 µM (inactive)
O=C(Sc1cccc2cccnc12)c1ccc(F)cc1F | > 99 µM (inactive)
O=C(Sc1cccc2cccnc12)c1ccccc1Cl | > 99 µM (inactive)
O=C(Sc1cccc2cccnc12)c1ccccc1OC(F)(F)F | > 99 µM (inactive)
O=C(Sc1cccc2cccnc12)c1ccccc1F | > 99 µM (inactive)
Cc1ccccc1C(=O)Sc1cccc2cccnc12 | > 99 µM (inactive)
O=C(Sc1cccc2cccnc12)C1CCCCC1 | > 99 µM (inactive)
O=C(Sc1cccc2cccnc12)c1c(Cl)cccc1Cl | > 99 µM (inactive)
O=C(Sc1cccc2cccnc12)c1cccc2ccccc12 | > 99 µM (inactive)
CCOc1ccccc1C(=O)Sc1cccc2cccnc12 | > 99 µM (inactive)
COc1ccccc1C(=O)Sc1cccc2cccnc12 | > 99 µM (inactive)

Continued, values first:

IC50 | Structure (SMILES)
> 99 µM (inactive) | O=C(Sc1cccc2cccnc12)c1ccc(F)c(F)c1
> 99 µM (inactive) | O=C(Sc1cccc2cccnc12)c1ccc2c(c1)OCO2
> 99 µM (inactive) | O=C(O)c1cnc2c(SSc3cccc4cc(C(=O)O)cnc34)cccc2c1
> 99 µM (inactive) | COC(=O)[C@@H]1CCCN1C(=O)c1cnc2c(SSc3cccc4cc(C(=O)N5CCC[C@H]5C(=O)OC)cnc34)cccc2c1
> 99 µM (inactive) | O=C(Sc1cccc2cccnc12)c1cccc(Cl)c1
> 99 µM (inactive) | COC(=O)[C@@H](NC(=O)c1cnc2c(SSc3cccc4cc(C(=O)N[C@H](C(=O)OC)C(C)C)cnc34)cccc2c1)C(C)C
> 99 µM (inactive) | COC(=O)[C@H](C)NC(=O)c1ccnc2c(SSc3cccc4c(C(=O)N[C@@H](C)C(=O)OC)ccnc34)cccc12
> 99 µM (inactive) | COC(=O)[C@H](CC(C)C)NC(=O)c1cnc2c(SSc3cccc4cc(C(=O)N[C@@H](CC(C)C)C(=O)OC)cnc34)cccc2c1
> 99 µM (inactive) | COC(=O)[C@H](C)NC(=O)c1cnc2c(SSc3cccc4cc(C(=O)N[C@@H](C)C(=O)OC)cnc34)cccc2c1
> 99 µM (inactive) | C[C@@H](C(=O)O)N(C)C(=O)c1cnc2c(SSc3cccc4cc(C(=O)N(C)[C@@H](C)C(=O)O)cnc34)cccc2c1
> 99 µM (inactive) | CC(C)C[C@H](NC(=O)c1cnc2c(SSc3cccc4cc(C(=O)N[C@@H](CC(C)C)C(=O)O)cnc34)cccc2c1)C(=O)O
> 99 µM (inactive) | COc1ccc(C(=O)Sc2cccc3cccnc23)cc1
> 99 µM (inactive) | COC(=O)[C@H](CO)NC(=O)c1cnc2c(SSc3cccc4cc(C(=O)N[C@@H](CO)C(=O)OC)cnc34)cccc2c1
> 99 µM (inactive) | Cc1ccc(C(=O)Sc2cccc3cccnc23)cc1
> 99 µM (inactive) | O=C(Sc1cccc2cccnc12)c1ccc(F)cc1
> 99 µM (inactive) | COC(=O)c1cnc2c(SSc3cccc4cc(C(=O)OC)cnc34)cccc2c1
> 99 µM (inactive) | COC(=O)C[C@H](NC(=O)c1cnc2c(SSc3cccc4cc(C(=O)N[C@@H](CC(=O)OC)C(=O)OC)cnc34)cccc2c1)C(=O)OC
> 99 µM (inactive) | CC(C)(C)OC(=O)CCNC(=O)c1cnc2c(SSc3cccc4cc(C(=O)NCCC(=O)OC(C)(C)C)cnc34)cccc2c1
> 99 µM (inactive) | O=C(Sc1cccc2cccnc12)c1cccc(C(F)(F)F)c1
> 99 µM (inactive) | N#Cc1cccc(C(=O)Sc2cccc3cccnc23)c1
> 99 µM (inactive) | O=C(Sc1cccc2cccnc12)c1ccccc1
> 99 µM (inactive) | CC(C)[C@H](NC(=O)c1cnc2c(SSc3cccc4cc(C(=O)N[C@H](C(=O)O)C(C)C)cnc34)cccc2c1)C(=O)O
> 99 µM (inactive) | COC(=O)[C@H](C)N(C)C(=O)c1cnc2c(SSc3cccc4cc(C(=O)N(C)[C@@H](C)C(=O)OC)cnc34)cccc2c1
> 99 µM (inactive) | COc1cccc(C(=O)Sc2cccc3cccnc23)c1
> 99 µM (inactive) | CC[C@@H](C)[C@H](NC(=O)c1cnc2c(SSc3cccc4cc(C(=O)N[C@H](C(=O)OC)[C@@H](C)CC)cnc34)cccc2c1)C(=O)OC
> 99 µM (inactive) | O=C(O)[C@@H]1CCCN1C(=O)c1cnc2c(SSc3cccc4cc(C(=O)N5CCC[C@H]5C(=O)O)cnc34)cccc2c1
> 99 µM (inactive) | CC[C@@H](C)[C@H](NC(=O)c1cnc2c(SSc3cccc4cc(C(=O)N[C@H](C(=O)O)[C@H](C)CC)cnc34)cccc2c1)C(=O)O
> 99 µM (inactive) | Cc1cccc(C(=O)Sc2cccc3cccnc23)c1
